Source: patent US20230227409A1, “QUINOLINONE DERIVATIVES AS METHIONINE ADENOSYLTRANSFERASE 2A INHIBITORS” (IDEAYA BIOSCIENCES, INC., priority 2020, published 2023)

Target: T1, Human MAT2A (Homo sapiens, UniProt P31153)
T1 construct: Human MAT2A: Cepter, amino acids 1-395; purchased Cepter clone ID 329, lot 00023-123; clone ID 334, lot 00023-148
Test: Phosphate Sensor Fluorescence Assay (Biologic Example A)
Type: biochemical
Details: MAT2A enzyme inhibition, Biological Example A; 500 uM L-methionine, 500 uM ATP; class symbols
Protocol: (§1) The ability of the compound of present disclosure to inhibit MAT2A enzyme was determined using a Phosphate Sensor Fluorescence Assay described below.
(§2) MAT2A enzyme is incubated with a test compound in DMSO or DMSO and its substrates (L-methionine and ATP) in a microtiter plate. The enzymatic reaction is stopped by the addition of Working Phosphate Sensor Mixture. The plate is analyzed for fluorescence at 450 nm. The high control (DMSO with enzyme and its substrates) gives high fluorescence which represents no inhibition of enzymatic activity while the low control (DMSO with MAT2A substrates and no enzyme) gives low fluorescence which represents full inhibition of enzymatic activity.
Human MAT2A: Cepter, amino acids 1-395
Assay Buffer: 50 mM Tris, pH 7.5/50 mM KCl/10 mM MgCl2/0.01% Brij-35/1 mM DTT/0.1% BGG/40 nM PNP/6 uM 7-MEG
MAT2A: 10 nM for Cepter clone ID 329, lot 00023-123 before the addition of Working Phosphate Sensor Mixture • 5 nM for Cepter clone ID 334, lot 00023-148 before the addition of Working Phosphate Sensor Mixture
(§3) L-methionine: 500 uM before the addition of Working Phosphate Sensor Mixture
ATP: 500 uM before the addition of Working Phosphate Sensor Mixture Procedure:
(§4) For the assay, a mixture of 1 mM L-methionine/1 mM ATP (2× final pre-stopped concentration) in assay buffer; MAT2A (2× final pre-stopped concentration) in Assay Buffer and Working Phosphate Sensor Mixture (1.5 uM Phosphate Sensor/30 mM EDTA in Assay Buffer, which is 3× final concentrations) were prepared. Test compounds or DMSO were added to the appropriate well suing D300e digital dispenser. 5 μl/well of Assay Buffer was added to the wells corresponding to the negative control and 5 μl/well of MAT2A was added to all the wells except for those corresponding to the negative control. After incubating the plate at room temperature for 15 minutes, 5 μl/well of the 1 mM L-methionine/1 mM ATP mixture was added to all wells. The plate was centrifuged at 1000 rpm for 1 minute and then incubated at room temperature for 1 hour. 5 μl of the Working Phosphate Sensor Mixture was added to all wells and the plate was centrifuged at 1000 rpm for 1 minute. The plate was read for fluorescence at 450 nm after exciting at 430 nm.
(§5) Percent inhibition was calculated in Chemical and Biological Information System (CBIS), (ChemInnovation Software Inc.). Curves were fitted by CBIS as % inhibition vs. log [compound concentration] using a 4-parameter inhibition model.
(§6) Fit=(A+((B−A)/(1+((C/x)^D))))
(§7) Compounds 1.001-1.021 were tested using the procedure described in Biological Example A, described above. Compounds 1.022-1.026 were tested using the procedure described in Biological Example B, described above.

T1 sequence (P31153 whole entry, the tested form may be a part): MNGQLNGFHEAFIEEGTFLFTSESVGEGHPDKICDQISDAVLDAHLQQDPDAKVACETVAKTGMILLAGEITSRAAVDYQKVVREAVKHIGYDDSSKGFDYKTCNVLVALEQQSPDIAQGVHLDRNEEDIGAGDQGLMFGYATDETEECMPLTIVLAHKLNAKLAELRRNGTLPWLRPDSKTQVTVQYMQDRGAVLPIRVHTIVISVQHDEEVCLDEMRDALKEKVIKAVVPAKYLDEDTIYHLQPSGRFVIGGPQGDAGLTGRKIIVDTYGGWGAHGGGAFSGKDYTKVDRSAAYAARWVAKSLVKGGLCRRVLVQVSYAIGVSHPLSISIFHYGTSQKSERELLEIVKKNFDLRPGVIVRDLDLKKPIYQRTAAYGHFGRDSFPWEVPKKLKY

CCCNS(=O)(=O)c1c(-c2ccccc2)c2cc(Cl)ccc2[nH]c1=O [Compound 1.016, 6-chloro-2-oxo-4-phenyl-N-propyl-1,2-dihydroquinoline-3-sulfonamide] and CNS(=O)(=O)c1c(-c2ccccc2)c2cc(Cl)ccc2[nH]c1=O [Compound 1.014, 6-chloro-N-methyl-2-oxo-4-phenyl-1,2-dihydroquinoline-3-sulfonamide] fall in the same range of IC50: 1000 to 10000 nM for the first, 1000 to 10000 nM for the second.

First: COc1c(-c2ccccc2)c2cc(Cl)ccc2[nH]c1=O [Compound 1.004, 6-chloro-3-methoxy-4-phenylquinolin-2(1H)-one]
Second: COc1c(-c2ccccc2)c2cc(Br)ccc2[nH]c1=O [Compound 1.009, 6-bromo-3-methoxy-4-phenylquinolin-2(1H)-one]
The IC50 of the first is higher: 200 to 500 nM for the first, 10 to 200 nM for the second. The second is the more potent here.

First: O=c1[nH]c2ccc(Cl)cc2c(-c2ccccc2)c1Sc1ncnc2sccc12 [Compound 1.006, 6-chloro-4-phenyl-3-(thieno[2,3-d]pyrimidin-4-ylthio)quinolin-2(1H)-one]
Second: O=c1[nH]c2ccccc2c(-c2ccccc2)c1Sc1ncnc2sccc12 [Compound 1.002]
The IC50 of the first is higher: 1000 to 10000 nM for the first, 500 to 1000 nM for the second. The second is the more potent here.

Cc1ccccc1-c1c(O)c(=O)[nH]c2ccc(C(F)(F)F)cc12 [Compound 1.018, 3-hydroxy-4-(o-tolyl)-6-(trifluoromethyl)quinolin-2(1H)-one] and O=c1[nH]c2ccc(C(F)(F)F)cc2c(-c2ccccc2)c1O [Compound 1.020, 3-hydroxy-4-phenyl-6-(trifluoromethyl)quinolin-2(1H)-one] fall in the same range of IC50: 10 to 200 nM for the first, 10 to 200 nM for the second.

O=c1[nH]c2ccc(Cl)cc2c(-c2ccccc2Cl)c1O [Compound 1.021, 6-chloro-4-(2-chlorophenyl)-3-hydroxyquinolin-2(1H)-one] and Cc1ccccc1-c1c(O)c(=O)[nH]c2ccc(Cl)cc12 [Compound 1.017, 6-chloro-3-hydroxy-4-(o-tolyl)quinolin-2(1H)-one] fall in the same range of IC50: 10 to 200 nM for the first, 10 to 200 nM for the second.

COc1c(-c2ccccc2)c2cc(C(F)(F)F)ccc2[nH]c1=O [Compound 1.019, 3-methoxy-4-phenyl-6-(trifluoromethyl)quinolin-2(1H)-one] and COc1c(-c2ccccc2)c2cc(C3CC3)ccc2[nH]c1=O [Compound 1.011, 6-cyclopropyl-3-methoxy-4-phenylquinolin-2(1H)-one] fall in the same range of IC50: 10 to 200 nM for the first, 10 to 200 nM for the second.

O=c1[nH]c2ccc(Cl)cc2c(-c2ccccc2)c1S(=O)(=O)c1ccccc1 [Compound 1.003] and CS(=O)(=O)c1c(-c2ccccc2)c2cc(Cl)ccc2[nH]c1=O [Compound 1.005, 6-chloro-3-(methylsulfonyl)-4-phenylquinolin-2(1H)-one] fall in the same range of IC50: 1000 to 10000 nM for the first, 1000 to 10000 nM for the second.

First: CN(C)c1c(-c2ccccc2)c2cc(Cl)ccc2[nH]c1=O [Compound 1.008, 6-chloro-3-(dimethylamino)-4-phenylquinolin-2(1H)-one]
Second: O=c1[nH]c2ccc(Cl)cc2c(-c2ccccc2)c1O [Compound 1.010, 6-chloro-3-hydroxy-4-phenylquinolin-2(1H)-one]
The IC50 of the first is higher: 1000 to 10000 nM for the first, 10 to 200 nM for the second. The second is the more potent here.

First: COc1c(-c2cccnc2)c2cc(Cl)ccc2[nH]c1=O [Compound 1.012, 6-chloro-3-methoxy-4-(pyridin-3-yl)quinolin-2(1H)-one]
Second: O=c1[nH]c2ccc(Cl)cc2c(-c2ccccc2)c1S [Compound 1.015, 6-chloro-3-mercapto-4-phenylquinolin-2(1H)-one]
The IC50 of the first is higher: 200 to 500 nM for the first, 10 to 200 nM for the second.

In the case of O=c1[nH]c2ccc(Cl)cc2c(-c2ccccc2)c1Sc1nc2ccccc2s1 [Compound 1.013, 3-(benzo[d]thiazol-2-ylthio)-6-chloro-4-phenylquinolin-2(1H)-one], the IC50 is reported as 1000 to 10000 nM.

Same assay, conditions: MAT2A enzyme inhibition, Biological Example A; 500 uM L-methionine, 500 uM ATP; given as bound

Cn1c(=O)cc(-c2ccccc2)c2cc(Cl)ccc21 [Compound 1.001, 6-chloro-1-methyl-4-phenylquinolin-2(1H)-one] gave an IC50 greater than 10000 nM.

Same assay, conditions: MAT2A enzyme inhibition, Biological Example A; 500 uM L-methionine, 500 uM ATP; unit inferred

CNc1c(-c2ccccc2)c2cc(Cl)ccc2[nH]c1=O [Compound 1.007, 6-chloro-3-(methylamino)-4-phenylquinolin-2(1H)-one] showed an IC50 greater than 10000 nM.

Target: T1, Human MAT2A
Test: Phosphate Sensor Fluorescence Assay (Biologic Example B)
Type: biochemical
Details: MAT2A enzyme inhibition, Biological Example B; 5.8 nM MAT2A, 500 uM L-methionine, 500 uM ATP; class symbols
Protocol: as §1, §2
MAT2A: 5.8 nM MAT2A (1-395), Cepter, clone ID 334, lot 00023-148 before the addition of Working Phosphate Sensor Mixture
as §3
ATP: 500 uM before the addition of Working Phosphate Sensor Mixture
as §4, with “well using a Beckman Coulter Echo 550 acoustic liquid handler. 10 µL/well” for “well suing D300e digital dispenser. 5 μl/well”, “and 10 µL/well” for “and 5 μl/well”, “minutes, 10 μL/well” for “minutes, 5 μl/well”, “hour. 10 μL” for “hour. 5 μl”, “430 nm on a Tecan Spark microplate reader.” for “430 nm.”
as §5, §6, §7

Cc1ncccc1-c1c(O)c(=O)[nH]c2ccc(Cl)cc12 [Compound 1.026, 6-Chloro-3-hydroxy-4-(2-methylpyridin-3-yl)quinolin-2(1H)-one] and Cc1ncccc1-c1c(O)c(=O)[nH]c2ccc(Br)cc12 [Compound 1.025, 6-Bromo-3-hydroxy-4-(2-methylpyridin-3-yl)quinolin-2(1H)-one] fall in the same range of IC50: 10 to 200 nM for the first, 10 to 200 nM for the second.

First: Cc1ncccc1-c1c(O)c(=O)[nH]c2ccc(C(F)(F)F)cc12 [Compound 1.023, 3-Hydroxy-4-(2-methylpyridin-3-yl)-6-(trifluoromethyl)quinolin-2(1H)-one]
Second: Cn1nccc1-c1c(O)c(=O)[nH]c2ccc(C(F)(F)F)cc12 [Compound 1.022, 3-Hydroxy-4-(1-methyl-1H-pyrazol-5-yl)-6-(trifluoromethyl)quinolin-2(1H)-one]
The IC50 of the first is lower: less than 10 nM for the first, 10 to 200 nM for the second. The first is the more potent here.

COc1cc(C(F)(F)F)cc2c(-c3ccccc3C)c(O)c(=O)[nH]c12 [Compound 1.024, 3-Hydroxy-8-methoxy-4-(o-tolyl)-6-(trifluoromethyl)quinolin-2(1H)-one] was tested, and the IC50 was 10 to 200 nM.
